Measurements: patent US20240197722A1, “ANTICANCER COMPOSITION INDUCING CELL SENESCENCE AND CELL DEATH” (OSTEONEUROGEN INC., priority 2021, published 2024)
pEC50, pIC50: −log10 of the molar value.

How the values were obtained:
A549 cells [1] = test: Immunocytochemistry for cell senescence morphology in A549 cells; type: cell-based; settings: for effect of inducing cancer cell-specific cell senescence: summary of chromone scaffold derivatives, FIG. 21; for cell flatness (morphological change of cell senescence): A549, 20 μM each, 72 hours, FIG. 1
Method: The cells were incubated with Rhodamine Phalloidin (Thermo Fisher, Massachusetts, US) for 4 hours at room temperature. After washing, the cells were incubated with Alexa Fluor 488 (Abcam, Cambridge, UK)-conjugated secondary antibody. Images were analyzed by using EVOS M7000 (Invitrogen, CA, USA). Nuclei were counterstained with DAPI.

PC3 cells [2] = test: Caspase-3/7 activity (apoptosis) in PC3 cells; type: cell-based, human; settings: PC3, Caspase-3/7 activity; for PC3 apoptosis: various concentrations
Method: Caspase-3/7 activity was measured by using a Caspase-3/7 assay kit (Promega, G8091). […] Afterwards, Caspase-3/7 activity was analyzed according to the manufacturer's protocol.

NHLF cells [3] = test: Mitochondrial membrane potential (MTMP) analysis in NHLF; type: cell-based, human; settings: for apoptosis in normal cells: measured with MTMP, Caspase3 and LDH, FIG. 20
[4] = test system: Normal human lung fibroblasts (NHLF); test: CCK-8 cell proliferation assay in normal human lung fibroblasts; type: cell-based; settings: CCK-8, FIG. 19
PANC1 = test: CCK-8 cell proliferation assay in PANC1 cells; type: cell-based, human; settings: for pIC50: Homo sapiens, PANC-1, PANC1, CCK-8, 72 hours
H358 cells [5] = test: CCK-8 cell proliferation assay in H358 cells; type: cell-based; settings: for inhibition of proliferation: H358, 30 μM or more, 72 hours
Method: (§1) H358 cells were seeded in 96-well plates at a concentration of 3×10^4 cells/well for 24 hours.

NHLF cells [6] = test: Caspase-3 activity assay in NHLF; type: cell-based; settings: Homo sapiens, read-out: Caspase3: EC 50
Method: (ii) Caspase-3 activity assay was measured by using a Caspase-3 assay kit (Abcam, ab37401). […] Thereafter, protein was measured with BCA (Thermo, 23227), and the protein was adjusted to 50 μg per 50 μL of cell lysis buffer. Afterwards, Caspase-3 activity was analyzed according to the manufacturer's protocol.

NHLF cells [7] = test: LDH cytotoxicity assay in NHLF; type: cell-based; settings: Homo sapiens, read-out: LDH: EC 50
Method: (iii) LDH cytotoxicity assay detected LDH release by using an LDH assay kit (Abcam, ab56393). […] Absorbance values were measured at 450 nm in a microplate reader.

A549 cells [8] = test: Mitochondrial membrane potential (TMRE) analysis in A549 cells
A549 cells [9] = test: NAD+/NADH colorimetric assay in A549 cell lysates; type: cell-based
Method: To this end, total NAD was extracted and quantified from A549 cell lysates by using the NAD+/NADH Colorimetric Assay Kit (Abcam, ab65348) according to the manufacturer's protocol. 1×10^6 cells were lysed in 400 μL NAD/NADH extraction buffer, filtered through a 10 kD spin column (ab93349) and measured in pure water or 1/5 dilution. Briefly, the amount of total NAD was calculated by dividing the standard curve (pmol) by the sample volume (μL) added to the reaction wells and multiplying by the dilution factor.

A549 cells [10] = test: TUNEL and 7AAD apoptosis analysis of A549 cells; type: cell-based
Method: The TUNEL analysis was performed by using the TUNEL assay kit (Abcam, ab66110) according to the manufacturer's instructions. […] After 24 hours, the cells were harvested and fixed in cold 70% ethanol, and 50 μL of a DNA labeling solution (10 μL of TdT reaction buffer, […], 8 μL of Br-dUTP, 32.5 μL of ddH2O) was added thereto. After 1-hour incubation at 37° C., the cells were washed twice with 300 μL of rinse buffer, and an antibody solution (5 μL of Anti-BrdU-Red antibody, 95 μL rinse buffer) was prepared and added to the washed cells, and the cells were incubated in the dark at room temperature for 30 minutes. 300 μL of 7-AAD/RNase solution was added at last. Each sample was analyzed by using Accuri C6 Plus (BD Bioscience).

A549 cells [11] = test: Western blot of cell cycle kinases in A549 cells; type: cell-based; settings: A549, 50 μM, 24 hours
A549 cells [12] = test: Cell changes of TGFβ-stimulated A549 cells; type: cell-based; settings: TGFβ-stimulated A549, 10 μM
normal cells = test: Additional Caspase3/7 analysis in normal cells; type: cell-based, human; settings: data not shown
A549 cells [13] = test: Western blot of p53, phospho-p53, p21 and p16 in A549 cells; type: cell-based
Method: After 24 hours, the cell lysates were clarified by centrifugation at 14,000×g for 10 minutes, and the supernatant was collected. Protein concentration was quantified by Bradford assay (Thermo Fisher, Massachusetts, USA). Afterwards, 25 μg of cellular protein was loaded onto a 10% SDS-PAGE gel and transferred to a nitrocellulose membrane. After blocking with 5% BSA, the membrane was incubated overnight at 4° C. with Anti-p53 (Cell Signaling Technology, Beverly, MA), Anti-phosphor-p53 (Cell Signaling Technology, Beverly, MA), Anti-p21 (Abcam, Cambridge, UK), Anti-p16-INK4A (Proteintech, IL, USA) and Anti-GAPDH (Abcam, Cambridge, UK). After thorough washing, the membrane was incubated with HRP-conjugated secondary antibody. Protein bands were visualized by using ECL reagent (Abfrontier, Korea) and Uvitec HD9 (UVITEC, UK).

A549 cells [14] = test: Immunocytochemistry of p53, p21 and p16 in A549 cells; type: cell-based
Method: A549 cell line was treated with 1, 5, 10 and 20 μM of the compound of the present invention (ONG41008), respectively, and after 24 or 72 hours, the cells were fixed by using 4% paraformaldehyde, permeabilized with 0.4% TritonX100 and blocked with 1% BSA. The cells were incubated with Anti-p53 (Cell Signaling Technology, Beverly, MA), Anti-p21 (Abcam, Cambridge, UK) and Anti-p16-INK4A (Proteintech, IL, USA) at room temperature for 4 hours. After washing, the cells were incubated with Alexa Fluor 488 (Abcam, Cambridge, UK)-conjugated secondary antibody. Images were analyzed by using EVOS M7000 (Invitrogen, CA, USA). Nuclei were counterstained with DAPI.

MCF7 = test: CCK-8 cell proliferation assay in MCF7 cells; type: cell-based; settings: Homo sapiens; MCF7, CCK-8, 72 hours
H358 cells [15] = test: Microscopic observation of H358 cells; type: cell-based; settings: H358, 10 μM, 72 hours
Method: as §1

A549 cells [16] = test: Immunocytochemistry for cell senescence and multinucleation of A549 cells over time; type: cell-based; settings: A549, 10 μM
Source text: ZEB1, which is an epithelial-mesenchymal transition (EMT) positive regulator, was used as an expression control.

MCF7 cells = test: Immunocytochemistry for multinucleation of MCF7 cells; type: cell-based, human; settings: MCF7, treated by concentration
PC3 = test: CCK-8 cell proliferation assay in PC3 cells; type: cell-based; settings: Homo sapiens, PC-3; PC3, CCK-8, 72 hours
A549 cells [17] = test: Intracellular ROS (H2DCFDA) in A549 cells; type: cell-based; settings: A549, various concentrations, 24 hours
Method: To this end, 1×10^4 cells/mL of A549 cells were dispensed in 96-well plates, and after 24 hours, the cells were treated with 10 μM H2DCFDA (Invitrogen, CA) and incubated at 37° C. in the dark for 1 hour. […] Intracellular ROS were examined by fluorescence microscopy (Thermo, MA) and quantified by fluorescence spectroscopy (Perkin Elmer, MA).

PC3 cells [18] = test: Immunocytochemistry for multinucleation of PC3 cells; type: cell-based, human; settings: PC3, treated by concentration
PANCI cells = test: Immunocytochemistry for multinucleation of PANC1 cells; type: cell-based, human; settings: PANC1, treated by concentration
H1299 cells = test: Immunocytochemistry for multinucleation of H1299 cells; type: cell-based; settings: H1299, treated by concentration
A549 cells [19] = test: PI staining cell cycle analysis of A549 cells; type: cell-based; settings: A549, 50 μM
Method: After 24 hours, the cells were harvested and fixed in cooled 70% ethanol, and then stained with propidium iodide containing 200 ug/mL RNase (Abcam, 139418) in the dark at 37° C. for 30 minutes. Each phase of the cell cycle was identified by using Accuri C6 Plus (BD Bioscience).

[20] = A549, mitochondrial membrane potential analysis

COc1cc(-c2cc(=O)c3c(O)c(OC)c(O)cc3o2)ccc1O [Jaceocidin, Jaceosidin]
effect of inducing cancer cell-specific cell senescence (A549 cells [1]): do not exert any effect

O=C(CCCCCCC(=O)Nc1ccccc1)NO [SAHA, suberoylanilide hydroxamic acid]
PC3 apoptosis (PC3 cells [2]): induced PC3 apoptosis in a concentration-dependent manner
apoptosis in normal cells (NHLF cells [3]): induced strong apoptosis
cell proliferation of normal cells [4]: inhibited cell proliferation

COc1ccc(-c2cc(=O)c3c(O)c(OC)c(O)cc3o2)cc1OC [ONG21001, Eupatilin]
cell flatness (morphological change of cell senescence) (A549 cells [1]): specifically observed

CC(=O)O[C@H]1C(=O)[C@@]2(C)[C@H]([C@H](OC(=O)c3ccccc3)[C@]3(O)C[C@H](OC(=O)[C@H](O)[C@@H](NC(=O)c4ccccc4)c4ccccc4)C(C)=C1C3(C)C)[C@]1(OC(C)=O)CO[C@@H]1C[C@@H]2O [paclitaxel, reference compound]
pIC50 (PANC1): 4.07
inhibition of proliferation (H358 cells [5]): inhibited the proliferation of non-small cell lung cancer cells to a similar level

O=c1cc(-c2ccc(O)cc2)oc2cc(O)cc(O)c12 [Apigenin]
effect of inducing cancer cell-specific cell senescence (A549 cells [1]): does not induce

COC(=O)c1ccc2c(c1)NC(=O)/C2=C(\Nc1ccc(N(C)C(=O)CN2CCN(C)CC2)cc1)c1ccccc1 [nintedanib]
pIC50 (NHLF cells [3]; Homo sapiens, read-out: MTMP: IC 50): 4.39
apoptosis in normal cells (NHLF cells [3]): induced strong apoptosis
pEC50 (NHLF cells [6]): 3.89
pEC50 (NHLF cells [7]): 3.66
cell proliferation of normal cells [4]: inhibited cell proliferation

COc1ccc(-c2cc(=O)c3c(O)c(OC)c(OCCN4CCNC(=O)C4)cc3o2)cc1OC [ONG41008]
difference between IC50 of SAHA and ONG41008 (A549 cells [8]; A549, FIG. 6): ~20 fold
day until which inhibitory effect increased, all cells removed (A549 cells [8]; [20]): 4 days
time at which decrease of cell viability / inhibitory effect started (A549 cells [8]; [20]): 48 h
pEC50 (PC3 cells [2]; Homo sapiens, PC-3): 4.69
PC3 apoptosis (PC3 cells [2]): induced PC3 apoptosis in a concentration-dependent manner
apoptosis in normal cells (NHLF cells [3]): did not induce significant apoptosis
NAD biosynthesis (A549 cells [9]; A549): increased
NAD/NADH ratio (change) (A549 cells [9]; A549, FIG. 7c): significantly increased
apoptosis (A549 cells [10]; A549, 48 hours of treatment): apoptosis was observed
apoptosis (A549 cells [10]; A549, 72 hours of treatment): clearly observed in a compound concentration-dependent manner
CDK2 expression (A549 cells [11]): inhibited
CDK6 expression (A549 cells [11]): inhibited
day from which a significant portion of cells started to die (A549 cells [12]): 6 days
day on which complete apoptosis was induced (A549 cells [12]): 15 days
caspase3/7 activity in normal cells (normal cells): did not induce caspase3/7 activity
pIC50 (PANC1): 4.93
inhibitory effect on proliferation compared to paclitaxel (PANC1; PANC1, 10 μM or more): more excellent inhibitory effect
p16 induction (A549 cells [13]; A549, 24 hours): induced in a concentration-dependent manner
p21 induction (A549 cells [13]; A549, 24 hours): induced in a concentration-dependent manner
total amount of TP53 (A549 cells [13]; A549, 24 hours): maintained to be the same
TP53 phosphorylation (A549 cells [13]; A549, various concentrations, 24 hours): phosphorylated in proportion to the increase in the concentration
TP53 nuclear localization (A549 cells [14]; A549, 1 μM, 24 hours): nuclear localization was observed
TP53 protein expression level (A549 cells [14]; A549, 1 μM, 24 hours): not changed
p16 expression (A549 cells [14]; A549, 1, 5, 10 and 20 μM, 24 hours): up-regulated in proportion to the concentration
p21 expression and localization (A549 cells [14]; A549, 24 hours): nuclear localized with upregulation
pIC50 (MCF7): 4.81
mitotic disruption (H358 cells [15]): observed
time of treatment with the greatest number of multinucleation (A549 cells [16]): 48 h
cell flattening (A549 cells [16]; 24 hours): clearly confirmed
multinucleation (A549 cells [16]; 24 hours): multinucleation was also observed
inhibition of proliferation (H358 cells [5]): inhibited the proliferation of non-small cell lung cancer cells to a similar level
difference between IC50 of paclitaxel and ONG41008 (H358 cells [5]; H358, 72 hours, FIG. 9): 14 fold
cell flatness (morphological change of cell senescence) (A549 cells [1]): specifically observed
multinucleation (MCF7 cells): observed
pIC50 (PC3): 4.49
ROS (A549 cells [17]): increased in a concentration-dependent manner
multinucleation (PC3 cells [18]): observed
multinucleation (PANCI cells): observed
multinucleation (H1299 cells): observed
cell cycle arrest (A549 cells [19]): arrest of the G1-S-G2 phase
cell proliferation of normal cells [4]: did not inhibit cell proliferation

COc1c(O)cc2oc(-c3ccc(O)cc3)cc(=O)c2c1O [Histidulin, Hispidulin]
effect of inducing cancer cell-specific cell senescence (A549 cells [1]): do not exert any effect
